The values that follow come from patent US20250188038A1, “CRYSTALLINE FORMS OF N-{[(S)-{[3-(4-CHLOROPHENYL)-4-PHENYL-4,5-DIHYDRO-1H-PYRAZOL-1-YL][4-(TRIFLUOROMETHYL)BENZENE” (Novo Nordisk A/S, priority 2022, published 2025).

In general, solubility refers to the concentration that dissolves in the medium under given conditions.

In brackets after ≈: the same amount, converted by molar mass. Entries after “also recorded” stand apart in the source; their conditions may differ. Where only a bound is given, the exact number is not on record here.

Common to all, as to assay type: physicochemical
Series [1] can be described thus: Slurry competition of the six anhydrates in n-butanol (thermodynamic assessment). The conditions noted are these: all anhydrates in equal mass ratios, RT and 50° C. How it is done:
A total of six anhydrates, Forms A, C, D, E, N, and Q were observed. A thermodynamic assessment of all anhydrates was performed by slurrying all anhydrates in equal mass ratios in a non-solvating solvent, n-Butanol, at RT and 50° C.

A short description of series [2]: Ambient drying of wet cake solids, form followed by XRPD. How it is done: Form A obtained from anti-solvent addition in ACN/H2O was further investigated by analyzing the wet solids by XRPD. The sample was covered with 3511 Kapton film to minimize the solvent evaporation from the wet cake. A unique pattern, different from Form A was observed indicating a labile solvate phase forms in this solvent system.
Form B was obtained by temperature cycling in IPA. The formation of Form B was also observed in IPA slurry at RT and 60° C. Form B was further characterized by analyzing the wet cake by XRPD. The sample on the XRPD sample holder was covered by 3511 Kapton Film to minimize the solvent evaporation from the sample. […] Comparing the KF and TGA results, it was concluded that Form B is an IPA solvate, more specifically, a hemi-solvate determined by calculating the API:Solvent stoichiometry from the TGA weight loss to be 1:0.6.
Form D was obtained by temperature cycling in toluene. The formation of Form D was also observed in 60° C. slurry and slow cooling using toluene. Form D was further characterized by analyzing the wet solids by XRPD. The sample on the XRPD sample holder was covered by 3511 Kapton Film to minimize the solvent evaporation from the sample. […] The minimal weight loss observed indicated an anhydrous phase.
Form E was obtained by temperature cycling in IPAc/MTBE (1:3 v/v). The formation of Form E was also observed in anti-solvent addition, crash cooling, and slurry at RT experiments using MTBE, 2-MeTHF, or toluene. Form E was further characterized by analyzing the wet solids by XRPD. The sample on the XRPD sample holder was covered by 3511 Kapton Film to minimize the solvent evaporation from the sample. […] The minimal weight loss observed indicated an anhydrous phase.
Form F was obtained by temperature cycling in THF/H2O (0.92/0.08 v/v Aw=0.2). The formation of Form F was also observed in RT slurry in THF/H2O at Aw=0.4 and 0.6, and in temperature cycling in THF/H2O (1:3). Form F was further characterized by analyzing the wet solids by XRPD. The sample on the XRPD sample holder was covered by 3511 Kapton film to minimize the solvent evaporation. […] Comparing the KF and TGA results, it was concluded that Form F is likely a THF solvate.

The nature of series [3]: Slurry competition of Form K and Form C at various water activities (critical water activity). The conditions noted are these: for Relative stability, Form K vs Form C slurry: EtOH/H2O. From the text:
One hydrate (Form K) was observed and found to be a hemi-hydrate. […] It was suspected that EtOH may be forming a solvate that favors the formation of Form K because at higher water activities, the hydrate should be more thermodynamically stable. The values and results for obtaining the critical water activity follows the laws of thermodynamics and the results obtained from this experiment can be transferred to another solvent/H2O system. Additional critical water activity experiments were performed in acetone/H2O at Aw=0.5 and 0.9 using Form K and Form C.

Series [4] is described as follows: Approximate solubility of Form A in 20 single solvents at RT. As to conditions: thermodynamic from solid. How it is done: Approximate solubility of Form A was determined in 20 single solvents at RT, respectively. Approximately 2 mg of Form A was added into a 3-mL glass vial. Corresponding solvents were added stepwise (50 μL-50 μL-200 μL-700 μL) into the vials until the solids were dissolved visually or a total volume of 1 mL was reached. The ranges of approximate solubility were calculated according to the mass of sample, volume of solvent and observation. The results summarized in Table 2 were used to guide the solvent selection in polymorph screening.

For `CC(=O)N/C(N)=N/C(=N\S(=O)(=O)c1ccc(C(F)(F)F)cc1)N1C[C@H](c2ccccc2)C(c2ccc(Cl)cc2)=N1` [Form Q, N-{[(S)-{[3-(4-chlorophenyl)-4-phenyl-4,5-dihydro-1H-pyrazol-1-yl][4-(trifluoromethyl)benzenesulfonamido]methylidene}amino]methanimidoyl}acetamide], the “Relative thermodynamic stability of anhydrates (outcome of slurry competition)” value (shortened to “Relative thermodynamic stability”) in series [1] is recorded as “conversion of all anhydrates to Form C”. For `CC(=O)N/C(N)=N/C(=N\S(=O)(=O)c1ccc(C(F)(F)F)cc1)N1C[C@H](c2ccccc2)C(c2ccc(Cl)cc2)=N1` [Form I, N-{[(S)-{[3-(4-chlorophenyl)-4-phenyl-4,5-dihydro-1H-pyrazol-1-yl][4-(trifluoromethyl)benzenesulfonamido]methylidene}amino]methanimidoyl}acetamide], the “Solid form conversion upon ambient drying” value in series [2] is recorded as “converted to Form B”.

For `CC(=O)N/C(N)=N/C(=N\S(=O)(=O)c1ccc(C(F)(F)F)cc1)N1C[C@H](c2ccccc2)C(c2ccc(Cl)cc2)=N1` [Form D, N-{[(S)-{[3-(4-chlorophenyl)-4-phenyl-4,5-dihydro-1H-pyrazol-1-yl][4-(trifluoromethyl)benzenesulfonamido]methylidene}amino]methanimidoyl}acetamide], the “Relative thermodynamic stability” value in series [1] is reported as “conversion of all anhydrates to Form C”. In the case of `CC(=O)N/C(N)=N/C(=N\S(=O)(=O)c1ccc(C(F)(F)F)cc1)N1C[C@H](c2ccccc2)C(c2ccc(Cl)cc2)=N1` [Form G, N-{[(S)-{[3-(4-chlorophenyl)-4-phenyl-4,5-dihydro-1H-pyrazol-1-yl][4-(trifluoromethyl)benzenesulfonamido]methylidene}amino]methanimidoyl}acetamide], the “Solid form conversion upon ambient drying” value in series [2] was “converted to Form F”.

`CC(=O)N/C(N)=N/C(=N\S(=O)(=O)c1ccc(C(F)(F)F)cc1)N1C[C@H](c2ccccc2)C(c2ccc(Cl)cc2)=N1` [Form C, N-{[(S)-{[3-(4-chlorophenyl)-4-phenyl-4,5-dihydro-1H-pyrazol-1-yl][4-(trifluoromethyl)benzenesulfonamido]methylidene}amino]methanimidoyl}acetamide]: in series [1], the “Relative thermodynamic stability” value is “thermodynamically most stable anhydrous form; also recorded: most stable anhydrate”. In addition, the “Relative stability, Form K vs Form C slurry” value in series [3] (Aw>0.9, equal mass ratios) was “more stable”. For the molecule `CC(=O)N/C(N)=N/C(=N\S(=O)(=O)c1ccc(C(F)(F)F)cc1)N1C[C@H](c2ccccc2)C(c2ccc(Cl)cc2)=N1` [Form E, N-{[(S)-{[3-(4-chlorophenyl)-4-phenyl-4,5-dihydro-1H-pyrazol-1-yl][4-(trifluoromethyl)benzenesulfonamido]methylidene}amino]methanimidoyl}acetamide], in series [1], the “Relative thermodynamic stability” value was “conversion of all anhydrates to Form C”. `CC(=O)N/C(N)=N/C(=N\S(=O)(=O)c1ccc(C(F)(F)F)cc1)N1C[C@H](c2ccccc2)C(c2ccc(Cl)cc2)=N1` [Form P, N-{[(S)-{[3-(4-chlorophenyl)-4-phenyl-4,5-dihydro-1H-pyrazol-1-yl][4-(trifluoromethyl)benzenesulfonamido]methylidene}amino]methanimidoyl}acetamide]: in series [2], the “Solid form conversion upon ambient drying” value is “converted to Form E”. Take `CC(=O)N/C(N)=N/C(=N\S(=O)(=O)c1ccc(C(F)(F)F)cc1)N1C[C@H](c2ccccc2)C(c2ccc(Cl)cc2)=N1` [Form A, N-{[(S)-{[3-(4-chlorophenyl)-4-phenyl-4,5-dihydro-1H-pyrazol-1-yl][4-(trifluoromethyl)benzenesulfonamido]methylidene}amino]methanimidoyl}acetamide]: the solubility was more than 10000 µg/mL in series [4] (Anisole, organic solvent or mixture); more than 10000 µg/mL in series [4] (EtOH, organic solvent or mixture); less than 3000 µg/mL in series [4] (IPA, organic solvent or mixture); less than 3000 µg/mL in series [4] (MTBE, organic solvent or mixture); 2000 to 10000 µg/mL (≈ 3.38 to 16.9 mM) in series [4] (Toluene, organic solvent or mixture); less than 3000 µg/mL in series [4] (Water). In addition, the solubility in series [4] (n-heptane, organic solvent or mixture) is less than 3000 µg/mL. The “Relative thermodynamic stability” value in series [1] is listed as “conversion of all anhydrates to Form C”. As for `CC(=O)N/C(N)=N/C(=N\S(=O)(=O)c1ccc(C(F)(F)F)cc1)N1C[C@H](c2ccccc2)C(c2ccc(Cl)cc2)=N1` [Form N, N-{[(S)-{[3-(4-chlorophenyl)-4-phenyl-4,5-dihydro-1H-pyrazol-1-yl][4-(trifluoromethyl)benzenesulfonamido]methylidene}amino]methanimidoyl}acetamide], in series [1], the “Relative thermodynamic stability” value is listed as “conversion of all anhydrates to Form C”. `CC(=O)N/C(N)=N/C(=N\S(=O)(=O)c1ccc(C(F)(F)F)cc1)N1C[C@H](c2ccccc2)C(c2ccc(Cl)cc2)=N1` [Form K, N-{[(S)-{[3-(4-chlorophenyl)-4-phenyl-4,5-dihydro-1H-pyrazol-1-yl][4-(trifluoromethyl)benzenesulfonamido]methylidene}amino]methanimidoyl}acetamide]: the “Stability of the hydrate (conclusion of critical water activity experiments)” value in series [3] is reported as “not a stable hydrate”. Also, the “Relative stability, Form K vs Form C slurry” value in series [3] (0.1<Aw<0.9, equal mass ratios) is recorded as “more stable”. The “Outcome of Form K and Form C slurry” value in series [3] (acetone/H2O, Aw=0.5 and 0.9) is recorded as “conversion to Form C”. As for `CC(=O)N/C(N)=N/C(=N\S(=O)(=O)c1ccc(C(F)(F)F)cc1)N1C[C@H](c2ccccc2)C(c2ccc(Cl)cc2)=N1` [Form H, N-{[(S)-{[3-(4-chlorophenyl)-4-phenyl-4,5-dihydro-1H-pyrazol-1-yl][4-(trifluoromethyl)benzenesulfonamido]methylidene}amino]methanimidoyl}acetamide], the “Solid form conversion upon ambient drying” value in series [2] is on record as “converted to Form D”.
